Reference: ChEMBL document CHEMBL5126518, “Quercetin derivatives: Drug design, development, and biological activities, a review” (Eur J Med Chem, 2022)
In brackets after ≈: the same amount, converted by molar mass.

Key:
Format in all cases: functional
Candida albicans [1] = assay: Antibiofilm activity against Candida albicans 475/15 assessed as inhibition of biofilm formation measured after 24 hrs by crystal violet staining based analysis relative to control; parameters: scale not given: the % may be the effect or the level left
Candida albicans [2] = assay: Antifungal activity against Candida albicans 10/15 assessed as fungal growth inhibition measured after 24 hrs by microdilution assay
Candida albicans [3] = assay: Antifungal activity against Candida albicans 13/15 assessed as fungal growth inhibition measured after 24 hrs by microdilution assay
Candida albicans [4] = assay: Antifungal activity against Candida albicans 475/15 assessed as fungal growth inhibition measured after 24 hrs by microdilution assay
Candida albicans [5] = assay: Antifungal activity against Candida albicans 527/14 assessed as fungal growth inhibition measured after 24 hrs by microdilution assay

MIC (Candida albicans [2]): 37.5 µg/mL (≈ 80.8 µM)
MIC (Candida albicans [3]): 37.5 µg/mL (≈ 80.8 µM)
MIC (Candida albicans [4]): 37.5 µg/mL (≈ 80.8 µM)
MIC (Candida albicans [5]): 37.5 µg/mL (≈ 80.8 µM)
Compound: O=c1c(O[C@@H]2O[C@H](CO)[C@@H](O)[C@H](O)[C@H]2O)c(-c2ccc(O)c(O)c2)oc2cc(O)cc(O)c12 [ISOQUERCETIN]
Activity (Candida albicans [1]): 76%
